Experiment: Cyclic loading test of UHMWPE pins, release of beta-carotene
Type: physicochemical
Conditions: pins soaked in 1.0 wt. % beta-carotene in squalane at 90° C. for 24 hours; peak load about 330 Newtons, 1.66 Hz, bovine calf serum, 37° C.
Experimental: UHMWPE (GUR 1050) is irradiated with gamma radiation (50 KGy or 5 Mrad) and melt annealed to quench free radicals. An AMTI Ortho-POD Wear Test Machine is used for the testing the UHMWPE cylindrical pin samples. The samples are ⅜ inch in diameter and 0.7 inch long, and are soaked in a 1.0 wt. % solution of beta-carotene in squalane at 90° C. for 24 hours. The samples are bright orange red in color, indicating the presence of beta-carotene.
A Paul loading curve with a peak load of about 330 Newtons is applied to the pins. The cycling frequency is 1.66 Hz. A 90% bovine calf serum, diluted with EDTA and sodium azide dissolved in reverse osmosis water, is used as lubricant. The temperature of the lubricant is 37° C.

With `CC1=C(/C=C/C(C)=C/C=C/C(C)=C/C=C/C=C(C)/C=C/C=C(C)/C=C/C2=C(C)CCCC2(C)C)C(C)(C)CCC1` [beta-carotene] the “release of beneficial agent from UHMWPE pins (colour change bright orange red to light orange)” value was “released, activated by the load”.

From US20070077268A1, “Hydrophobic carrier modified implants for beneficial agent delivery” (DePuy Products, Inc., priority 2005, published 2007)
